Where two headings read alike, the source gives them in different places.
Columns and labels:
2C9 = 2C9 (Homo sapiens, UniProt P11712); test: CYP2C9 inhibition; assay type: in vitro ADME
2D6 = 2D6 (Homo sapiens, UniProt P10635); test: CYP2D6 inhibition; assay type: in vitro ADME
CYP3A [1] = test: CYP3A induction (mRNA and activity); assay type: in vitro ADME; conditions: at 0.1 to 10 μM
[2] = tested on: patients with advanced solid tumors
Description: The dose-escalation phase in all schedules followed a toxicity probability interval approach, where the aim was to target a dose with a DLT rate of 30% [20].
For all treatment schedules, safety assessments were conducted at baseline and on days 1, 2, 3, 7, 15, and 21 of cycle 1, and weekly in cycles 2 to 6. From cycle 7 onwards, safety assessments were performed on day 1 of each cycle. […] In addition to glucose monitoring, serum c-peptide and whole blood HbA1c were measured at baseline and monthly. Adverse events (AEs) and laboratory variables were assessed using the National Cancer Institute Common Terminology Criteria for Adverse Events (NCI-CTCAE) version 3.0 ^1.

[3] = Phase 1 combination study: MK-2206 pharmacokinetics; assay type: in vivo, human; conditions: for Tmax / half-life: first dose; for Tmax: read-out: T max, median (range); for half-life: read-out: t 1/2, harmonic mean ± pseudo SD (converted)
Description: For the Q3W schedule, samples were taken in cycle 1 on days 1 to 3 as per the QOD schedule, then on days 5, 7, 15, and in cycle 2 on day 1. Blood samples were collected predose and just before the end of the infusion for carboplatin, paclitaxel, and docetaxel for archival and possible PK analysis. Another sample was taken 30 minutes into the infusion of paclitaxel. These samples were archived for possible future analysis to investigate if any unexpected toxicities may have been as a result of a PK interaction. Docetaxel PK samples were analyzed in view of the DLT of febrile neutropenia observed in arm 2; however, PK parameters, such as half-life (t1/2) or systemic exposure of paclitaxel, docetaxel, carboplatin, and erlotinib, could not be evaluated due to the sparse blood sampling design used in this study.
For QW dosing, samples were taken in cycle 1 on day 1 (predose, 2, 4, 6, 10, and 24 hours postdose), day 3 (48 hours postdose), and day 5 (96 hours postdose), then on days 8 and 15 (predose). This sampling schedule was repeated in cycle 2, except for the day 15 predose sample, which was omitted. For the QOD schedule, PK sampling for erlotinib was performed in cycle 1 on day 1 (predose, 2 and 4 hours postdose) and day 21 (2 and 4 hours postdose); for the QW schedule, sampling was performed in cycle 1 on day 1 (predose, 2 and 4 hours postdose) and in cycle 2 on day 1 (2 and 4 hours postdose). […] Blood samples were not analyzed for erlotinib concentrations as the potential for a marked drug-drug interaction with erlotinib as a victim was considered to be low as erlotinib is metabolized by both CYP3A and CYP1A.

CYP3A [4] = test: Metabolism in human microsomes; assay type: in vitro ADME
AKT1 = tested on: AKT1; set-up: method as in earlier work; conditions: cited from earlier work
AKT2 = tested on: AKT2; set-up: method as in earlier work; conditions: cited from earlier work
AKT3 = tested on: AKT3; set-up: method as in earlier work; conditions: cited from earlier work
[5] = tested on: patients with advanced solid tumors; conditions: cited from earlier work
[6] = tested on: non-small cell lung (NSCLC) cell lines and breast cancer cell lines; conditions: with erlotinib and lapatinib; including RAS mutant lines; cited from earlier work
[7] = tested on: NCI-H292 and A2780 tumor cells; conditions: with carboplatin and docetaxel; cited from earlier work
[8] = tested on: PC-3 prostate and NCI-H462 tumor xenografts; conditions: with docetaxel, carboplatin, and gemcitabine; cited from earlier work
[9] = tested on: mouse NCI-H292 tumor xenografts; conditions: 3 times per week and QW schedule of MK-2206; cited from earlier work
[10] = human, plasma, oral, arm 1 carboplatin AUC 6 + paclitaxel 200 mg/m^2, MK-2206 90 mg Q3W, 5 patients
[11] = human, plasma, oral, arm 1 carboplatin AUC 6 + paclitaxel 200 mg/m^2, MK-2206 200 mg Q3W, 5 patients
[12] = human, plasma, oral, arm 2 docetaxel 60 mg/m^2, MK-2206 90 mg Q3W, 3 patients
[13] = human, plasma, oral, arm 2 docetaxel 60 mg/m^2, MK-2206 200 mg Q3W, 4 patients
[14] = human, plasma, oral, arm 3 erlotinib 100 mg, MK-2206 135 mg QW, 6 patients
[15] = human, plasma, oral, arm 3 erlotinib 150 mg QD, MK-2206 135 mg QW, 6 patients

2D6, sequence (P10635 whole entry): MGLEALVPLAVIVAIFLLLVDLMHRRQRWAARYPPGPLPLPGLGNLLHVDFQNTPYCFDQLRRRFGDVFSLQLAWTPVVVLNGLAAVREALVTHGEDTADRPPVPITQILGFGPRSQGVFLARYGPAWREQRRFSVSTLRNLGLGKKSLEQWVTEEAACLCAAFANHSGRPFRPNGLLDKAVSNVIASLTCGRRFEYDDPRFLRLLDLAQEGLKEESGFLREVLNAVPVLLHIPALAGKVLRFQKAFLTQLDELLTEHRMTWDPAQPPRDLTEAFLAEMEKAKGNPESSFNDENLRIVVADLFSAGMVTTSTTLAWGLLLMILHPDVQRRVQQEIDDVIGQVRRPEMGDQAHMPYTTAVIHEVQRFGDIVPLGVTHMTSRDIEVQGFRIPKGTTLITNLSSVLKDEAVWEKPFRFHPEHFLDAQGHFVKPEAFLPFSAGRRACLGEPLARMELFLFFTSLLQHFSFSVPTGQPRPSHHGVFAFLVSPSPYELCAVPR
2C9, sequence (P11712 whole entry): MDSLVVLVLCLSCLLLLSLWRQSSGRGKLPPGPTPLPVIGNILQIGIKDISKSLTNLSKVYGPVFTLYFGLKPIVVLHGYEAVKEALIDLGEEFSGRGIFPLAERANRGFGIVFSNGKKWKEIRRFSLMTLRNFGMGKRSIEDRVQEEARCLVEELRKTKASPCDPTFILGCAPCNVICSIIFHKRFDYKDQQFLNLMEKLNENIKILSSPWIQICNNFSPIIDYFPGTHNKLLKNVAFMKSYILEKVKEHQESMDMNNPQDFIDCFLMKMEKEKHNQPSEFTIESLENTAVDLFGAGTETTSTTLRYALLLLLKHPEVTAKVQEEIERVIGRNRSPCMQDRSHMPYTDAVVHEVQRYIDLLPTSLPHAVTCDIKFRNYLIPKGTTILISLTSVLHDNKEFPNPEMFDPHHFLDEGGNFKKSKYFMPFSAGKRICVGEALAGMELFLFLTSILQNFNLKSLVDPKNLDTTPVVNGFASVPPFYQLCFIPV

## NC1(c2ccc(-c3nc4ccn5c(=O)[nH]nc5c4cc3-c3ccccc3)cc2)CCC1 [MK-2206]
2C9
  IC50: > 35000 nM
2D6
  IC50: > 35000 nM
CYP3A [1]
  effect on CYP3A mRNA and activity: insignificant effect
[2]; all arms and schedules (N = 72)
  vomiting, frequency of AE: […]
[2]; arm 1, Q3W schedule
  rash, frequency: […]
[2]; arm 1, Q3W, with carboplatin AUC 6 and paclitaxel 200 mg/m^2
  MTD of MK-2206: […]
[2]; arm 1, QOD days 1, 3, 5, 7, PO, with carboplatin AUC 6 and paclitaxel 200 mg/m^2
  MTD of MK-2206: […]
[2]; arm 2, Q3W, with docetaxel
  MTD of MK-2206: not reached
[2]; arm 2, Q3W, with docetaxel 60 mg/m^2
  MAD of MK-2206: […]
[2]; arm 3, MK-2206 135 mg QW with erlotinib
  DLT rate: […]
[2]; arm 3, QW, with erlotinib
  MTD of MK-2206: not reached
[2]; human, in vivo
  Alopecia Grade 4: 0 n (%)
  Decreased appetite Grade 4: 0 n (%)
  Diarrhea Grade 4: 0 n (%)
  Fatigue Grade 4: 0 n (%)
  Nausea Grade 4: 0 n (%)
  Pruritus Grade 4: 0 n (%)
  Rash Grade 4: 0 n (%)
  Stomatitis Grade 4: 0 n (%)
  Vomiting Grade 4: 0 n (%)
  fatigue, frequency of AE: 68%
  nausea, frequency of AE: 49%
  rash, frequency of AE: 47%
  stomatitis, frequency of AE: 32%
[2]; human, in vivo, 21 days
  Dose-limiting toxicities: 0
[3]; 45-mg dose level in all schedules
  mean Ctrough: […]
[3]; 60-mg QOD (arm 1), last PK sampling time
  mean 48-hr plasma concentration: […]
[3]; all treatment arms, compared with single-agent phase 1 study (ref 18)
  AUC, Cmax and Tmax following the first MK-2206 dose: […]
[3]; compared with monotherapy
  apparent t1/2 in combination with carboplatin and erlotinib: consistent with that observed with monotherapy
[3]; human, plasma, oral, arm 1 carboplatin AUC 6 + paclitaxel 200 mg/m^2, MK-2206 45 mg QOD, 6 patients
  Tmax: […]
[3]; human, plasma, oral, arm 1 carboplatin AUC 6 + paclitaxel 200 mg/m^2, MK-2206 60 mg QOD, 8 patients
  Tmax: […]
[3]; [10]
  Tmax: […]
  half-life: […]
[3]; human, plasma, oral, arm 1 carboplatin AUC 6 + paclitaxel 200 mg/m^2, MK-2206 135 mg Q3W, 6 patients
  half-life: […]
[3]; [11]
  Tmax: […]
  half-life: […]
[3]; [12]
  Tmax: […]
  half-life: […]
[3]; human, plasma, oral, arm 2 docetaxel 60 mg/m^2, MK-2206 135 mg Q3W, 3 patients
  half-life: […]
[3]; [13]
  Tmax: […]
  half-life: […]
[3]; human, plasma, oral, arm 2 docetaxel 75 mg/m^2, MK-2206 45 mg QOD, 5 patients
  Tmax: […]
[3]; human, plasma, oral, arm 3 erlotinib 100 mg, MK-2206 45 mg QOD, 9 patients
  Tmax: […]
[3]; [14]
  Tmax: […]
  half-life: […]
[3]; human, plasma, oral, arm 3 erlotinib 150 mg QD, MK-2206 45 mg QOD, 4 patients
  Tmax: […]
[3]; [15]
  Tmax: […]
  half-life: […]
[3]; human, plasma, oral, 45-mg QOD (arm 3), last PK sampling time
  concentration at 48 h: […]
CYP3A [4]
  metabolism to oxidative metabolites: mediated primarily by CYP3A
AKT1
  IC50: […]
AKT2
  IC50: […]
AKT3
  IC50: 65 nM
[5]; QOD
  MTD of single-agent MK-2206: […]
[5]; QW, monotherapy phase 1 study
  MTD of MK-2206 monotherapy: […]
[5]; single agent, QOD schedule
  half-life (t1/2): […]
[5]; single agent
  dose-limiting toxicities (DLT): rash and stomatitis
[5]; single-agent phase 1 study
  plasma concentration corresponding to 70% AKT inhibition: […]
[6]
  inhibition of proliferation and induction of apoptosis in combination: […]
[7]
  inhibition of tumor cell growth in combination: […]
[8]
  inhibition of xenograft growth in combination: synergised
[9]
  tumor growth suppression in combination with erlotinib: significantly greater in vivo tumor growth suppression and tumor regressions over each single agent

Source: PMC3884022 (Journal of Hematology & Oncology, 2014)
